Calls of active or inactive are those of the source. No cut-off for these calls is given here.
How the values were obtained:
Assay type in all cases: functional
[1] = test system: Staphylococcus aureus; test: Antibacterial activity against Staphylococcus aureus at 25 ug/ml after 24 hrs by agar well diffusion method
[2] = test system: Staphylococcus aureus; test: Antibacterial activity against Staphylococcus aureus at 50 ug/ml after 24 hrs by agar well diffusion method
[3] = test system: Staphylococcus aureus; test: Antibacterial activity against Staphylococcus aureus at 75 ug/ml after 24 hrs by agar well diffusion method
[4] = test system: Staphylococcus aureus; test: Antibacterial activity against Staphylococcus aureus at 100 ug/ml after 24 hrs by agar well diffusion method
[5] = test system: Bacillus subtilis; test: Antibacterial activity against Bacillus subtilis at 25 ug/ml after 24 hrs by agar well diffusion method
[6] = test system: Bacillus subtilis; test: Antibacterial activity against Bacillus subtilis at 50 ug/ml after 24 hrs by agar well diffusion method
[7] = test system: Bacillus subtilis; test: Antibacterial activity against Bacillus subtilis at 75 ug/ml after 24 hrs by agar well diffusion method
[8] = test system: Bacillus subtilis; test: Antibacterial activity against Bacillus subtilis at 100 ug/ml after 24 hrs by agar well diffusion method
[9] = test system: Escherichia coli; test: Antibacterial activity against Escherichia coli at 25 ug/ml after 24 hrs by agar well diffusion method
[10] = test system: Escherichia coli; test: Antibacterial activity against Escherichia coli at 50 ug/ml after 24 hrs by agar well diffusion method
[11] = test system: Escherichia coli; test: Antibacterial activity against Escherichia coli at 75 ug/ml after 24 hrs by agar well diffusion method
[12] = test system: Escherichia coli; test: Antibacterial activity against Escherichia coli at 100 ug/ml after 24 hrs by agar well diffusion method
[13] = test system: Klebsiella pneumoniae; test: Antibacterial activity against Klebsiella pneumoniae at 25 ug/ml after 24 hrs by agar well diffusion method; conditions: read-out: DIZ
[14] = test system: Klebsiella pneumoniae; test: Antibacterial activity against Klebsiella pneumoniae at 50 ug/ml after 24 hrs by agar well diffusion method; conditions: read-out: DIZ
[15] = test system: Klebsiella pneumoniae; test: Antibacterial activity against Klebsiella pneumoniae at 75 ug/ml after 24 hrs by agar well diffusion method; conditions: read-out: DIZ
[16] = test system: Klebsiella pneumoniae; test: Antibacterial activity against Klebsiella pneumoniae at 100 ug/ml after 24 hrs by agar well diffusion method; conditions: read-out: DIZ
[17] = test system: Staphylococcus aureus; test: Antibacterial activity against methicillin resistant Staphylococcus aureus MRSA090 at 25 ug/ml after 24 hrs by agar well diffusion method; conditions: MRSA090, 24 h, read-out: DIZ
[18] = test system: Staphylococcus aureus; test: Antibacterial activity against methicillin resistant Staphylococcus aureus MRSA090 at 50 ug/ml after 24 hrs by agar well diffusion method; conditions: MRSA090, 24 h, read-out: DIZ
[19] = test system: Staphylococcus aureus; test: Antibacterial activity against methicillin resistant Staphylococcus aureus MRSA090 at 75 ug/ml after 24 hrs by agar well diffusion method; conditions: MRSA090, 24 h, read-out: DIZ
[20] = test system: Staphylococcus aureus; test: Antibacterial activity against methicillin resistant Staphylococcus aureus MRSA090 at 100 ug/ml after 24 hrs by agar well diffusion method; conditions: MRSA090, 24 h, read-out: DIZ
[21] = test system: Aspergillus niger; test: Antifungal activity against Aspergillus niger at 25 ug/ml after 48 hrs by agar well diffusion method
[22] = test system: Aspergillus niger; test: Antifungal activity against Aspergillus niger at 50 ug/ml after 48 hrs by agar well diffusion method
[23] = test system: Aspergillus niger; test: Antifungal activity against Aspergillus niger at 75 ug/ml after 48 hrs by agar well diffusion method
[24] = test system: Aspergillus niger; test: Antifungal activity against Aspergillus niger at 100 ug/ml after 48 hrs by agar well diffusion method
[25] = test system: Fusarium verticillioides; test: Antifungal activity against Fusarium moniliforme at 25 ug/ml after 48 hrs by agar well diffusion method; conditions: read-out: DIZ
[26] = test system: Fusarium verticillioides; test: Antifungal activity against Fusarium moniliforme at 50 ug/ml after 48 hrs by agar well diffusion method; conditions: read-out: DIZ
[27] = test system: Fusarium verticillioides; test: Antifungal activity against Fusarium moniliforme at 75 ug/ml after 48 hrs by agar well diffusion method; conditions: read-out: DIZ
[28] = test system: Fusarium verticillioides; test: Antifungal activity against Fusarium moniliforme at 100 ug/ml after 48 hrs by agar well diffusion method; conditions: read-out: DIZ
[29] = test system: Fusarium oxysporum; test: Antifungal activity against Fusarium oxysporum at 25 ug/ml after 48 hrs by agar well diffusion method
[30] = test system: Fusarium oxysporum; test: Antifungal activity against Fusarium oxysporum at 50 ug/ml after 48 hrs by agar well diffusion method; conditions: read-out: DIZ
[31] = test system: Fusarium oxysporum; test: Antifungal activity against Fusarium oxysporum at 75 ug/ml after 48 hrs by agar well diffusion method; conditions: read-out: DIZ
[32] = test system: Fusarium oxysporum; test: Antifungal activity against Fusarium oxysporum at 100 ug/ml after 48 hrs by agar well diffusion method; conditions: read-out: DIZ

For Cc1cccc2nc(N/N=C/c3ccco3)sc12, the “diameter of the inhibition zone (DIZ)” value [1] was “inactive”, the “diameter of the inhibition zone (DIZ)” value [2] was “inactive” and the “diameter of the inhibition zone (DIZ)” value [3] was “inactive”. The “diameter of the inhibition zone (DIZ)” value [4] was “inactive”, the “diameter of the inhibition zone (DIZ)” value [5] was “inactive” and the “diameter of the inhibition zone (DIZ)” value [6] was “inactive”. The “diameter of the inhibition zone (DIZ)” value [7] was “inactive”, the “diameter of the inhibition zone (DIZ)” value [8] was “inactive” and the zone of inhibition at 25 µg/mL ([9]; read-out: DIZ) was 4 mm. For the same compound, the zone of inhibition at 50 µg/mL ([10]; read-out: DIZ) was 9 mm, the zone of inhibition at 75 µg/mL ([11]; read-out: DIZ) was 13 mm and the zone of inhibition at 100 µg/mL ([12]; read-out: DIZ) was 17 mm. The zone of inhibition at 25 µg/mL [13] was 11 mm, the zone of inhibition at 50 µg/mL [14] was 16 mm and the zone of inhibition at 75 µg/mL [15] was 21 mm. It also gave a zone of inhibition at 100 µg/mL [16] of 24 mm, a zone of inhibition at 25 µg/mL [17] of 5 mm and a zone of inhibition at 50 µg/mL [18] of 9 mm. For the same compound, the zone of inhibition at 75 µg/mL [19] was 13 mm, the zone of inhibition at 100 µg/mL [20] was 16 mm and the zone of inhibition at 25 µg/mL ([21]; read-out: DIZ) was 10 mm. The zone of inhibition at 50 µg/mL ([22]; read-out: DIZ) was 13 mm, the zone of inhibition at 75 µg/mL ([23]; read-out: DIZ) was 17 mm and the zone of inhibition at 100 µg/mL ([24]; read-out: DIZ) was 22 mm. It also gave a zone of inhibition at 25 µg/mL [25] of 10 mm, a zone of inhibition at 50 µg/mL [26] of 13 mm and a zone of inhibition at 75 µg/mL [27] of 18 mm. The zone of inhibition at 100 µg/mL [28] was 21 mm, the zone of inhibition at 25 µg/mL ([29]; read-out: DIZ) was 4 mm and the zone of inhibition at 50 µg/mL [30] was 10 mm. It also gave a zone of inhibition at 75 µg/mL [31] of 14 mm and a zone of inhibition at 100 µg/mL [32] of 18 mm.
Work on COc1cc(/C=N/Nc2nc3cccc(C)c3s2)ccc1OCc1ccccc1 yielded a zone of inhibition at 25 µg/mL ([1]; read-out: DIZ) of 7 mm, a zone of inhibition at 50 µg/mL ([2]; read-out: DIZ) of 11 mm and a zone of inhibition at 75 µg/mL ([3]; read-out: DIZ) of 14 mm. For the same compound, the zone of inhibition at 100 µg/mL ([4]; read-out: DIZ) was 18 mm, the “diameter of the inhibition zone (DIZ)” value [5] was “inactive” and the “diameter of the inhibition zone (DIZ)” value [6] was “inactive”. For the same compound, the “diameter of the inhibition zone (DIZ)” value [7] was “inactive”, the “diameter of the inhibition zone (DIZ)” value [8] was “inactive” and the “diameter of the inhibition zone (DIZ)” value [9] was “inactive”. For the same compound, the “diameter of the inhibition zone (DIZ)” value [10] was “inactive”, the “diameter of the inhibition zone (DIZ)” value [11] was “inactive” and the “diameter of the inhibition zone (DIZ)” value [12] was “inactive”. It also gave a zone of inhibition at 25 µg/mL [13] of 7 mm, a zone of inhibition at 50 µg/mL [14] of 12 mm and a zone of inhibition at 75 µg/mL [15] of 14 mm. It also gave a zone of inhibition at 100 µg/mL [16] of 17 mm, a zone of inhibition at 25 µg/mL [17] of 5 mm and a zone of inhibition at 50 µg/mL [18] of 10 mm. For the same compound, the zone of inhibition at 75 µg/mL [19] was 12 mm, the zone of inhibition at 100 µg/mL [20] was 14 mm and the “diameter of the inhibition zone (DIZ)” value [21] was “inactive”. The “diameter of the inhibition zone (DIZ)” value [22] was “inactive”, the “diameter of the inhibition zone (DIZ)” value [23] was “inactive” and the “diameter of the inhibition zone (DIZ)” value [24] was “inactive”. The zone of inhibition at 25 µg/mL [25] was 4 mm, the zone of inhibition at 50 µg/mL [26] was 9 mm and the zone of inhibition at 75 µg/mL [27] was 15 mm. The zone of inhibition at 100 µg/mL [28] was 20 mm, the “diameter of the inhibition zone (DIZ)” value [29] was “inactive” and the zone of inhibition at 50 µg/mL [30] was 5 mm. The zone of inhibition at 75 µg/mL [31] was 9 mm and the zone of inhibition at 100 µg/mL [32] was 14 mm.

— ChEMBL document CHEMBL4020788, “Synthesis, SAR and molecular docking studies of benzo[d]thiazole-hydrazones as potential antibacterial and antifungal agents” (2017)
